According to ChEMBL document CHEMBL1201862, “PubChem BioAssay data set” (2004):
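The compound was tested at five concentrations on cells cultured in 96-well plates, with a 48-hour exposure period. GI50 marks 50% less growth.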 The source made the active and inactive calls. No stated cut-off is given here; in the data, active = GI50 up to about 1.1 µM and inactive = higher.

How the values were obtained:
Assay in all cases: NCI anticancer screen, dose series, 48 h
PC-3 = test system: PC-3
RPMI-8226 = test system: RPMI-8226
SK-MEL-5 = test system: SK-MEL-5
HOP-62 = test system: HOP-62
SF-295 = test system: SF-295
HCT-116 = test system: HCT-116
SR = test system: SR
SF-268 = test system: SF-268
K562 = test system: K562
M14 = test system: M14
HCT-15 = test system: HCT-15
MCF7 = test system: MCF7
SK-MEL-2 = test system: SK-MEL-2
COLO 205 = test system: COLO 205
SN12C = test system: SN12C
OVCAR-3 = test system: OVCAR-3
RXF 393 = test system: RXF 393
NCI-H226 = test system: NCI-H226
SNB-19 = test system: SNB-19
T47D = test system: T47D
MDA-MB-231 = test system: MDA-MB-231
SNB-75 = test system: SNB-75
HCC 2998 = test system: HCC 2998
CCRF-CEM = test system: CCRF-CEM
Hs-578T = test system: Hs-578T
MOLT-4 = test system: MOLT-4
NCI/ADR-RES = test system: NCI/ADR-RES
IGROV-1 = test system: IGROV-1
MDA-MB-435 = test system: MDA-MB-435
CAKI-1 = test system: CAKI-1
UACC-62 = test system: UACC-62
SK-OV-3 = test system: SK-OV-3
786-0 = test system: 786-0
HL-60 = test system: HL-60
UO-31 = test system: UO-31
SW-620 = test system: SW-620
DU-145 = test system: DU-145
OVCAR-8 = test system: OVCAR-8
BT-549 = test system: BT-549
U-251 = test system: U-251
ACHN = test system: ACHN
Malme-3M = test system: Malme-3M
MDA-N = test system: MDA-N
LOX IMVI = test system: LOX IMVI
KM12 = test system: KM12
NCI-H23 = test system: NCI-H23
TK-10 = test system: TK-10
NCI-H522 = test system: NCI-H522
NCI-H460 = test system: NCI-H460
OVCAR-5 = test system: OVCAR-5
HT-29 = test system: HT-29
OVCAR-4 = test system: OVCAR-4
SK-MEL-28 = test system: SK-MEL-28
EKVX = test system: EKVX
UACC-257 = test system: UACC-257
A549 = test system: A549
A498 = test system: A498

In the case of `CCCCCC(=O)n1[nH]c(=O)n(-c2ccc(OC)cc2)c1=O`, the GI50 (PC-3) is reported as > 100 µM (inactive), the GI50 (RPMI-8226) is reported as > 100 µM (inactive) and the GI50 (SK-MEL-5) is reported as > 100 µM (inactive). The GI50 (HOP-62) was > 100 µM (inactive), the GI50 (SF-295) was > 100 µM (inactive) and the GI50 (HCT-116) was > 100 µM (inactive). For the same molecule, the GI50 (SR) was > 100 µM (inactive), the GI50 (SF-268) was > 100 µM (inactive) and the GI50 (K562) was > 100 µM (inactive). The GI50 (M14) was > 100 µM (inactive), the GI50 (HCT-15) was greater than 100 µM and the GI50 (MCF7) was > 100 µM (inactive). The GI50 (SK-MEL-2) was > 100 µM (inactive), the GI50 (COLO 205) was > 100 µM (inactive) and the GI50 (SN12C) was > 100 µM (inactive). The GI50 (OVCAR-3) was > 100 µM (inactive), the GI50 (RXF 393) was > 100 µM (inactive) and the GI50 (NCI-H226) was > 100 µM (inactive). For the same molecule, the GI50 (SNB-19) was > 100 µM (inactive), the GI50 (T47D) was > 100 µM (inactive) and the GI50 (MDA-MB-231) was > 100 µM (inactive). The GI50 (SNB-75) was > 100 µM (inactive), the GI50 (HCC 2998) was > 100 µM (inactive) and the GI50 (CCRF-CEM) was > 100 µM (inactive). The GI50 (Hs-578T) was > 100 µM (inactive), the GI50 (MOLT-4) was > 100 µM (inactive) and the GI50 (NCI/ADR-RES) was > 100 µM (inactive). The GI50 (IGROV-1) was > 100 µM (inactive), the GI50 (MDA-MB-435) was > 100 µM (inactive) and the GI50 (CAKI-1) was > 100 µM (inactive). For the same molecule, the GI50 (UACC-62) was > 100 µM (inactive), the GI50 (SK-OV-3) was > 100 µM (inactive) and the GI50 (786-0) was > 100 µM (inactive). The GI50 (HL-60) was > 100 µM (inactive), the GI50 (UO-31) was > 100 µM (inactive) and the GI50 (SW-620) was > 100 µM (inactive). For the same molecule, the GI50 (DU-145) was > 100 µM (inactive), the GI50 (OVCAR-8) was > 100 µM (inactive) and the GI50 (BT-549) was > 100 µM (inactive). For the same molecule, the GI50 (U-251) was > 100 µM (inactive), the GI50 (ACHN) was > 100 µM (inactive) and the GI50 (Malme-3M) was 63.1 µM (inactive). For the same molecule, the GI50 (MDA-N) was > 100 µM (inactive), the GI50 (LOX IMVI) was > 100 µM (inactive) and the GI50 (KM12) was > 100 µM (inactive). For the same molecule, the GI50 (NCI-H23) was > 100 µM (inactive), the GI50 (TK-10) was > 100 µM (inactive) and the GI50 (NCI-H522) was 57.5 µM (inactive). For the same molecule, the GI50 (NCI-H460) was > 100 µM (inactive), the GI50 (OVCAR-5) was > 100 µM (inactive) and the GI50 (HT-29) was > 100 µM (inactive). For the same molecule, the GI50 (OVCAR-4) was > 100 µM (inactive), the GI50 (SK-MEL-28) was > 100 µM (inactive) and the GI50 (EKVX) was > 100 µM (inactive). For the same molecule, the GI50 (UACC-257) was > 100 µM (inactive) and the GI50 (A549) was > 100 µM (inactive).

`Cn1c(=O)[nH]c2sc3c(c2c1=N)CCCC3` was tested, and the GI50 (PC-3) was > 75 µM (inactive), the GI50 (RPMI-8226) was 50.1 µM (inactive) and the GI50 (SK-MEL-5) was > 75 µM (inactive). The GI50 (HOP-62) was > 75 µM (inactive), the GI50 (SF-295) was > 75 µM (inactive) and the GI50 (HCT-116) was > 75 µM (inactive). For the same molecule, the GI50 (SR) was > 75 µM (inactive), the GI50 (SF-268) was > 75 µM (inactive) and the GI50 (K562) was > 75 µM (inactive). The GI50 (HCT-15) was greater than 75 µM, the GI50 (MCF7) was > 75 µM (inactive) and the GI50 (SK-MEL-2) was 0.199 µM (active). For the same molecule, the GI50 (COLO 205) was > 75 µM (inactive), the GI50 (SN12C) was > 75 µM (inactive) and the GI50 (OVCAR-3) was > 75 µM (inactive). The GI50 (RXF 393) was > 75 µM (inactive), the GI50 (NCI-H226) was > 75 µM (inactive) and the GI50 (SNB-19) was > 75 µM (inactive). For the same molecule, the GI50 (T47D) was > 75 µM (inactive), the GI50 (MDA-MB-231) was > 75 µM (inactive) and the GI50 (A498) was > 75 µM (inactive). The GI50 (SNB-75) was > 75 µM (inactive), the GI50 (HCC 2998) was 58.9 µM (inactive) and the GI50 (Hs-578T) was > 75 µM (inactive). For the same molecule, the GI50 (MOLT-4) was > 75 µM (inactive), the GI50 (NCI/ADR-RES) was > 75 µM (inactive) and the GI50 (IGROV-1) was > 75 µM (inactive). For the same molecule, the GI50 (MDA-MB-435) was > 75 µM (inactive), the GI50 (CAKI-1) was > 75 µM (inactive) and the GI50 (UACC-62) was > 75 µM (inactive). For the same molecule, the GI50 (786-0) was > 75 µM (inactive), the GI50 (HL-60) was 32.7 µM (inactive) and the GI50 (UO-31) was > 75 µM (inactive). For the same molecule, the GI50 (SW-620) was > 75 µM (inactive), the GI50 (DU-145) was > 75 µM (inactive) and the GI50 (OVCAR-8) was > 75 µM (inactive). For the same molecule, the GI50 (BT-549) was > 75 µM (inactive), the GI50 (U-251) was > 75 µM (inactive) and the GI50 (ACHN) was > 75 µM (inactive). For the same molecule, the GI50 (Malme-3M) was > 75 µM (inactive), the GI50 (MDA-N) was > 75 µM (inactive) and the GI50 (LOX IMVI) was > 75 µM (inactive). The GI50 (KM12) was > 75 µM (inactive), the GI50 (NCI-H23) was > 75 µM (inactive) and the GI50 (TK-10) was > 75 µM (inactive). For the same molecule, the GI50 (NCI-H522) was > 75 µM (inactive), the GI50 (NCI-H460) was > 75 µM (inactive) and the GI50 (OVCAR-5) was > 75 µM (inactive). The GI50 (HT-29) was > 75 µM (inactive), the GI50 (OVCAR-4) was > 75 µM (inactive) and the GI50 (SK-MEL-28) was > 75 µM (inactive). The GI50 (EKVX) was 54.7 µM (inactive) and the GI50 (UACC-257) was > 75 µM (inactive).
